Where two headings read alike, the source gives them in different places.
Biological target: recombinant GST-LRRK2 (wild-type) (Homo sapiens (Human), UniProt Q5S007)
Assay: LRRK2 TR-FRET peptide assay (in vitro kinase activity), wild-type
Format: biochemical
Experimental: Compounds as described herein (compounds of Formula I, e.g., compounds of the above Examples) are tested for their in vitro kinase activities using various LRRK2 (including LRRK2 G2019S mutant) assays. […] Serially diluted compounds (1% DMSO as co-solvent) were pre-incubated with recombinant GST-LRRK2 (wild-type, or G2019S mutant, Invitrogen) for 15 minutes at room temperature in 384-well Corning black plates. […] The inhibition of each well was calculated using the control and background readings for that plate. IC50 values were determined from dose-response curves using eight concentrations from the serial dilution of the test compounds.

[1] = 100 μM ATP, 100 nM biotin-LRRKtide substrate, 10 nM kinase, 60 minutes at room temperature

Chain of recombinant GST-LRRK2 (wild-type) (Q5S007 whole entry): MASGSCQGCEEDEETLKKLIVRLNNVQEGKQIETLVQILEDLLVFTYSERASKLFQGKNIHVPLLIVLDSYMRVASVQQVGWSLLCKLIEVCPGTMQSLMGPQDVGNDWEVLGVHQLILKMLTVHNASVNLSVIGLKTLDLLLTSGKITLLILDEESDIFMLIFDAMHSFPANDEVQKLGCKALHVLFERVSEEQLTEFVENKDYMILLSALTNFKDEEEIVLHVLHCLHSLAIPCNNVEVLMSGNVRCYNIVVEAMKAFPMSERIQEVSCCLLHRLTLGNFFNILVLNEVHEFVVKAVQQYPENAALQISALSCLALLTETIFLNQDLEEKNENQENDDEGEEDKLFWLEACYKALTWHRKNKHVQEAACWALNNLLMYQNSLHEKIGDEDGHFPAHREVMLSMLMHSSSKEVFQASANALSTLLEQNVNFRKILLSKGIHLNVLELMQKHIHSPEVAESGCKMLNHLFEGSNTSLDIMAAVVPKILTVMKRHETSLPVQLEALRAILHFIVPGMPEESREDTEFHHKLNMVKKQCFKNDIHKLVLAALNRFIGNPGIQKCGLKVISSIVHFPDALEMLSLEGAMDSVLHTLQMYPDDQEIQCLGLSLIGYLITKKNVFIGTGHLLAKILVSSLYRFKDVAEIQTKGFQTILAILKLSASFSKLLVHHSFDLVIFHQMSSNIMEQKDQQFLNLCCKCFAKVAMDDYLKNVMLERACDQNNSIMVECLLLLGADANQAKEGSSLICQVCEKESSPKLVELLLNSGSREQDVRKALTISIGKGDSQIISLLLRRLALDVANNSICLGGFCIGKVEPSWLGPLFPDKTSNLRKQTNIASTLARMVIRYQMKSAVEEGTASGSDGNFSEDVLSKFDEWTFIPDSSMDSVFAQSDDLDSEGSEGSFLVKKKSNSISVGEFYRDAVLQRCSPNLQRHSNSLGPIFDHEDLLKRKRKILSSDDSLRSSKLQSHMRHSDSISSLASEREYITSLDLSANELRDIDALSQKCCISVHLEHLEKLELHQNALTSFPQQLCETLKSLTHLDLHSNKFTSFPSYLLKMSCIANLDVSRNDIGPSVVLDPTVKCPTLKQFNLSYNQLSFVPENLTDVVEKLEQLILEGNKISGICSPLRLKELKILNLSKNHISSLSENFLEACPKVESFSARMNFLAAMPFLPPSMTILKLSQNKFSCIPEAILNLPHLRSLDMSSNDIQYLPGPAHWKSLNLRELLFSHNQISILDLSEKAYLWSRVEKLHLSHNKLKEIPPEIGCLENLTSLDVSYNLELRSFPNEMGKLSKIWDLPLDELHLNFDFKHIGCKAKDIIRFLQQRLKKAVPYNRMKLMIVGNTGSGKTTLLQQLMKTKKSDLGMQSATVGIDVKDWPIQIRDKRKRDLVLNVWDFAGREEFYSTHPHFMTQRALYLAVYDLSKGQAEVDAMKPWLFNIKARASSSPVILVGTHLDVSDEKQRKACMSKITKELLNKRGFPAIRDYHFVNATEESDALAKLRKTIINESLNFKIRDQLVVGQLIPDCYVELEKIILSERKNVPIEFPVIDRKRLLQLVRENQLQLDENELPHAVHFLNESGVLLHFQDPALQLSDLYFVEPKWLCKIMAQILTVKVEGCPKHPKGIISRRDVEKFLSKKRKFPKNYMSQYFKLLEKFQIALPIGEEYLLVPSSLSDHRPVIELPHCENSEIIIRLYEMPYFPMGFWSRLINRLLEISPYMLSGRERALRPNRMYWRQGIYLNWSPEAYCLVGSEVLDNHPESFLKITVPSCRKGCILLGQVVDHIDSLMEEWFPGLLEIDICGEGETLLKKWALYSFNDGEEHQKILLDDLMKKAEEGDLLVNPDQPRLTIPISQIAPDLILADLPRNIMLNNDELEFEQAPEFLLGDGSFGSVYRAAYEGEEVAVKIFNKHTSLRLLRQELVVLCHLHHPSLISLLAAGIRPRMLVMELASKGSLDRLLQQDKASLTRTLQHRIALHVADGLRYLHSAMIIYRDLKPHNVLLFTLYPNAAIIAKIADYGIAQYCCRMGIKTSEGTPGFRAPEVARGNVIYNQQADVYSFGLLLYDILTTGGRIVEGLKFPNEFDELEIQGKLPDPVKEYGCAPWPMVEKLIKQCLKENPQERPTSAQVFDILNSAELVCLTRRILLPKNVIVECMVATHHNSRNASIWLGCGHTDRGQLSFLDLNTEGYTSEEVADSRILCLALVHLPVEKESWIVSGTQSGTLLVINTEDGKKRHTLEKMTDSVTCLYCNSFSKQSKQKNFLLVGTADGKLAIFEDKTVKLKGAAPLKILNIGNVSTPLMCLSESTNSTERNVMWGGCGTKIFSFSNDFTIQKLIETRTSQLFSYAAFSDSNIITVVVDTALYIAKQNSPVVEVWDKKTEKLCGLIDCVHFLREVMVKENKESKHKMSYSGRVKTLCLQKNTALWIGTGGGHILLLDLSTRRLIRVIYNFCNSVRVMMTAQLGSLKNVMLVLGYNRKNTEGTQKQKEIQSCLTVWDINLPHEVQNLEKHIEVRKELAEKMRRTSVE

IC50 [1] | Structure (SMILES) | IC50
31 nM | CC(C)Nc1c(C(N)=O)nnc2cc(-n3cccn3)ccc12 [Compound 4-80, 4-(isopropylamino)-7-(1H-pyrazol-1-yl)cinnoline-3-carboxamide] | 
170 nM | CC(C)Nc1c(C(N)=O)nnc2cc(N3CCCC3=O)ccc12 [Compound 4-85, 4-(isopropylamino)-7-(2-oxopyrrolidin-1-yl)cinnoline-3-carboxamide] | 
 | CC(C)Nc1c(C(N)=O)nnc2cc(N3CCN(C)CC3)ccc12 [Compound 4-188, 4-(isopropylamino)-7-(4-methylpiperazin-1-yl)cinnoline-3-carboxamide] | 53 nM
68 nM | COc1ccccc1Nc1ccc2c(NC(C)C)c(C(N)=O)nnc2c1 [Compound 4-189, 4-(isopropylamino)-7-(2-methoxyphenylamino)cinnoline-3-carboxamide] | 
31 nM | COc1ncccc1Nc1ccc2c(NC(C)C)c(C(N)=O)nnc2c1 [Compound 4-190, 4-(isopropylamino)-7-(2-methoxypyridin-3-ylamino)cinnoline-3-carboxamide] | 
1300 nM | CC(C)Nc1c(C(N)=O)nnc2ccc(N3CCOCC3)cc12 [Compound 4-191, 4-(isopropylamino)-6-morpholinocinnoline-3-carboxamide] | 
240 nM | COc1cccc(Nc2ccc3c(NC(C)C)c(C(N)=O)nnc3c2)c1 [Compound 4-192, 4-(isopropylamino)-7-(3-methoxyphenylamino)cinnoline-3-carboxamide] | 
13 nM | CC(C)Nc1c(C(N)=O)nnc2cc(-c3cscn3)ccc12 [Compound 5-55, 4-(isopropylamino)-7-(thiazol-4-yl)cinnoline-3-carboxamide] | 
21600 nM | Cc1nnc2cc(-c3ccc(S(C)(=O)=O)cc3)ccc2c1NC(C)C [Compound 6-83, N-isopropyl-3-methyl-7-(4-(methylsulfonyl)phenyl)cinnolin-4-amine] | 
940 nM | CC(C)Nc1c(C(N)=O)nnc2cc(CCO)ccc12 [Compound 7-198, 7-(2-hydroxyethyl)-4-(isopropylamino)cinnoline-3-carboxamide] | 
420 nM | CC(C)Nc1c(-c2nc[nH]n2)nnc2cc(-c3ccc(S(C)(=O)=O)cc3)ccc12 [Compound 8-200, N-Isopropyl-7-(4-(methylsulfonyl)phenyl)-3-(1H-1,2,4-triazol-3-yl)cinnolin-4-amine] | 
54 nM | COc1ccc(N2CCOC2=O)cc1-c1ccc2c(N[C@H](C)C3CC3)c(C(N)=O)nnc2c1 [Compound 9-206, (R)-4-(1-cyclopropylethylamino)-7-(2-methoxy-5-(2-oxooxazolidin-3-yl)phenyl)cinnoline-3-carboxamide] | 
280 nM | COc1ccc(-n2cccn2)cc1-c1ccc2c(N[C@H](C)C3CC3)c(C(N)=O)nnc2c1 [Compound 9-207, (R)-4-(1-cyclopropylethylamino)-7-(2-methoxy-5-(1H-pyrazol-1-yl)phenyl)cinnoline-3-carboxamide] | 
1100 nM | COc1cc(N2CCOC2=O)ccc1-c1ccc(OC)c(-c2ccc3c(N[C@H](C)C4CC4)c(C(N)=O)nnc3c2)c1 [Compound 9-208, (R)-4-(1-cyclopropylethylamino)-7-(2′,4-dimethoxy-4′-(2-oxooxazolidin-3-yl)biphenyl-3-yl)cinnoline-3-carboxamide] | 
63 nM | COc1ccc(N2CCOCC2=O)cc1-c1ccc2c(N[C@H](C)C3CC3)c(C(N)=O)nnc2c1 [Compound 9-209, (R)-4-(1-cyclopropylethylamino)-7-(2-methoxy-5-(3-oxomorpholino)phenyl)cinnoline-3-carboxamide] | 
490 nM | COc1cc(N2CCOCC2=O)ccc1-c1ccc(OC)c(-c2ccc3c(N[C@H](C)C4CC4)c(C(N)=O)nnc3c2)c1 [Compound 9-210, (R)-4-(1-cyclopropylethylamino)-7-(2′,4-dimethoxy-4′-(3-oxomorpholino)biphenyl-3-yl)cinnoline-3-carboxamide] | 
1 nM | C[C@@H](Nc1c(C(N)=O)nnc2cc(-c3ccc(N4CCOC4=O)cc3)ccc12)C1CC1 [Compound 9-213, (R)-4-(1-cyclopropylethylamino)-7-(4-(2-oxooxazolidin-3-yl)phenyl)cinnoline-3-carboxamide] | 
990 nM | C#Cc1nnc2cc(-c3ccc(S(C)(=O)=O)cc3)ccc2c1NC(C)C [Compound 10-87, 3-ethynyl-N-isopropyl-7-(4-(methylsulfonyl)phenyl)cinnolin-4-amine] | 
43 nM | COc1cc(-c2ncccc2F)ccc1-c1ccc2c(N[C@H](C)C3CC3)c(C(N)=O)nnc2c1 [Compound 11-218, (R)-4-(1-Cyclopropylethylamino)-7-(4-(3-fluoropyridin-2-yl)-2-methoxyphenyl)cinnoline-3-carboxamide] | 
25 nM | COc1cc(-c2nccnc2OC)ccc1-c1ccc2c(N[C@H](C)C3CC3)c(C(N)=O)nnc2c1 [Compound 11-220, (R)-4-(1-cyclopropylethylamino)-7-(2-methoxy-4-(3-methoxypyrazin-2-yl)phenyl)cinnoline-3-carboxamide] | 
9 nM | COc1cc(-c2nccn2C)ccc1-c1ccc2c(N[C@H](C)C3CC3)c(C(N)=O)nnc2c1 [Compound 11-221, (R)-4-(1-cyclopropylethylamino)-7-(2-methoxy-4-(1-methyl-1H-imidazol-2-yl)phenyl)cinnoline-3-carboxamide] | 
410 nM | CNC(=O)c1nnc2cc(-c3ccc(S(C)(=O)=O)cc3)ccc2c1NC(C)C [Compound 12-227, 4-(Isopropylamino)-N-methyl-7-(4-(methylsulfonyl)phenyl)cinnoline-3-carboxamide] | 
> 1000 nM | CNC(=O)c1nnc2cc(-c3ccc(S(C)(=O)=O)cc3)ccc2c1NC [Compound 12-229, N-methyl-4-(methylamino)-7-(4-(methylsulfonyl)phenyl)cinnoline-3-carboxamide] | 
170 nM | CNC(=O)c1nnc2cc(-c3ccc(S(C)(=O)=O)cc3)ccc2c1N[C@H](C)C1CC1 [Compound 12-231, (R)-4-(1-cyclopropylethylamino)-N-methyl-7-(4-(methylsulfonyl)phenyl)cinnoline-3-carboxamide] | 
51 nM | CC(C)Nc1c(-c2ncc[nH]2)nnc2cc(-c3ccc(S(C)(=O)=O)cc3)ccc12 [Compound 13-233, 3-(1H-imidazol-2-yl)-N-isopropyl-7-(4-(methylsulfonyl)phenyl)cinnolin-4-amine] | 
1600 nM | C=C(C)c1ccc2c(N[C@H](C)C3CC3)c(C(=O)NC)nnc2c1 [Compound 14-235, (R)-4-(1-cyclopropylethylamino)-N-methyl-7-(prop-1-en-2-yl)cinnoline-3-carboxamide] | 
1950 nM | CNC(=O)c1nnc2cc(C3CC3)ccc2c1N[C@H](C)C1CC1 [Compound 14-236, (R)-7-cyclopropyl-4-(1-cyclopropylethylamino)-N-methylcinnoline-3-carboxamide] | 

Source: patent US9884828B2, “Substituted cinnolines as inhibitors of LRRK2 kinase activity” (Imago Pharmaceuticals, Inc., priority 2011, dated 2018)
